Measurements reported in ChEMBL document CHEMBL3507680, “University of Dundee, Gates Library screen for HepG2 cell viability”.

Assay: Human HepG2 cell viability assay in 384 well format
Type: toxicity, cell-based
Parameters: dose 125 nL, time 70.5 hour; cytotoxicity at 70.5 h: concentration not given beside the values
Details: HepG2 cells, read-out: Inhibition

SMILES	cytotoxicity at 70.5 h [%]
O=C(NCCS(=O)(=O)N1CCc2ccccc21)c1c(O)cc(F)cc1F	-2.02
Cc1nc(C)n(CC2CCCN2Cc2nc(C)c3ccccc3n2)n1 (centres undefined)	-7.3
COC(=O)NCCCC(=O)NCC1(c2cccc(Cl)c2)CC1	20.6
COc1ccc(CN2C[C@@H]3COC[C@]3(COc3cccnc3)C2)cc1	-7.11
CC[C@@H]1N(Cc2cccnc2)CCC[C@]12CCC(=O)N2C	-12.1
COCC(=O)N1CCC2(CCN(Cc3ccc(C)cc3)CC2)CC1	-11.5
CN1CCOC(C(=O)N2CCC3(CCCC3)CC2)C1 (centres undefined)	-2.13
O=C1COc2ccccc2N1CCCn1cnnn1	-9.54
O=S(=O)(c1ccccc1)N1CCOCC(Cc2cccnc2)C1 (centres undefined)	-3.24
Cc1cc(C)n(CC(C)NC(=O)C2(c3ccc(F)cc3)CC2)n1 (centres undefined)	-10.8
COc1cccc(OCC2CCCN(C(=O)CCCn3cccn3)C2)c1 (centres undefined)	-11
Cc1noc(Cl)c1CC(=O)N1CCCC1Cn1cccn1 (centres undefined)	2.85
CO[C@H]1CCN(C2CCC2)[C@@H]2CN(Cc3ccncc3)C[C@H]12	-0.868
Cc1n[nH]c2c1C(c1ccc3c(c1)OCO3)SCC(=O)N2 (centres undefined)	25.4
Cc1ccc(C(=O)N2CC(C)(C)[C@@](C)(O)C2)cc1N1CCNC1=O	0.84
c1cc2c(cc1CN1C[C@@H]3COC[C@@H](N4CCCC4)[C@@H]3C1)OCO2	-6.89
Cc1noc(C(C)N2CCN(c3ncnc4ccccc34)CC2)n1 (centres undefined)	-13.6
CCc1ccc(CN(CCN(C)C)Cc2ccc(C)s2)nc1	-5.3
Cc1cc(C(C)(O)CNC(=O)CCOCC(C)C)c(C)o1 (centres undefined)	0.738
OCc1csc(N2CCN(Cc3cccc(F)c3)CC2)n1	22.2
Cc1ncc(C(=O)N2CCCC(Cc3nccs3)C2)cn1 (centres undefined)	-8.16
Cc1nc(CN(Cc2cccnc2)Cc2ccsc2)c[nH]1	0.327
CC(=O)c1ccc(C(=O)N2CCCCC2c2nc[nH]n2)cc1 (centres undefined)	1.34

SMILES	cytotoxicity at 70.5 h [%]
O=C(c1nc2c(s1)CCCN2CC1CC1)N1CCOCC1	4.5
CC(=O)N1CCn2cc(CNC(=O)c3cccn3C)nc2C1	-10.7
O=C(NCCc1ccccc1)c1cn(CCNCc2cccnc2)nn1	-6.19
CCn1cnnc1C1CCN(C(=O)c2cc(OC)ccc2OC)CC1	1
Cc1cccc(N2CCC(N3CCC4(CN(C)C(=O)O4)C3)CC2)c1C (centres undefined)	-9.4
COc1ccc(-c2ccc(C(=O)N3CCOCC3CC(N)=O)o2)cc1 (centres undefined)	-2.54
c1cc(CN2CCO[C@H]3[C@H](OCCN4CCCC4)CC[C@@H]32)co1	-14.8
Cc1[nH]c2ccc(CNc3cc(C(N)=O)ccn3)cc2c1C	-0.16
CC1(C)OC(=O)N(CCOc2ccc(F)cc2)C1=O	-4.69
NCCc1nc(N(Cc2cncs2)C2CC2)c2ccccc2n1	24.1
CSc1ncccc1C(=O)NC(C)c1cccc(N2CCOC2=O)c1 (centres undefined)	-10.4
Cc1nn(C)c(N(C)C)c1CNCCC(=O)NC1CCCCC1	-0.221
CC(C)c1cc(C(=O)NCCN2CCCCC2CO)on1 (centres undefined)	-7
CN(C)C(=O)C1CN(c2ccncn2)CCN(C2CCOCC2)C1 (centres undefined)	12.4
CCCNC(=O)Nc1cc2c(cc1SC)OCCO2	0.576
C[C@@H](O)[C@H](NC(=O)c1csc2nc(-c3ccccc3F)cn12)C(N)=O	2.4
O=C(Nc1ccccc1)N1C[C@H]2CC[C@@H]1CN(Cc1ccccc1)C2	-4.8
CS(=O)(=O)NCC(=O)N1CCCC1c1noc(C2CC2)n1 (centres undefined)	-2.26
COCC1c2nnn(CC3CC3)c2CCN1C(=O)c1cnccn1 (centres undefined)	-13
O=C(COC1CCCC1)N1C[C@@H]2COC[C@]2(COc2cccnc2)C1	3.14
c1ccc(-n2ncc(CNC3CCc4ncnn4C3)n2)cc1 (centres undefined)	-10.4
CCn1cc(Cl)c(C(=O)NCCCO)n1	-3.76
CCCc1cc(C(=O)N(C)Cc2cnn(-c3cccc(OC)c3)c2)[nH]n1	-6.08

SMILES	cytotoxicity at 70.5 h [%]
CC(Cc1ccc(Cl)cc1)N(C)C(=O)NCCS(C)(=O)=O (centres undefined)	18.5
CC(C)(C)c1ncc(CNCC2CCCn3ccnc32)s1 (centres undefined)	-4.17
O=C(CCc1ccccn1)N1CCSC2(CCCCC2)C1	3.22
CC(C)(C)NS(=O)(=O)c1cc(NC(=O)C2CC2)ccc1F	-5.03
COc1ccc(C2CCCN2C(=O)CCNc2ncccn2)cc1 (centres undefined)	-5.82
CCNC(=O)N1CC2=CC(C)(C)COc3ccc(OC)c(c32)C1	-6.22
Cc1c(F)cc(C(=O)NCC(F)(F)F)cc1NCC(=O)N(C)C	10.3
Cn1cnc(S(=O)(=O)NCC2(O)CCOc3ccccc32)c1 (centres undefined)	-4.65
O=C(NCCN1CCOCC1)c1cc(-c2ccc(Cl)s2)[nH]n1	-1.44
O=C1CC2(CCN(CCO)C2)CN1c1cccc(F)c1 (centres undefined)	-10.9
CC1c2ncc(CN3CCN(C)CC3)n2CCN1Cc1ccc(F)cc1 (centres undefined)	-2.82
Cc1ccc(C(=O)N(C)S(C)(=O)=O)cc1Cl	-1.55
CNC(=O)CN1CCC(c2nn(C)c(=O)n2-c2ccccc2)CC1	-4.2
Cn1c(Cn2ccnc2)nnc1C1CCCN(C2CCCCC2)C1 (centres undefined)	-9.84
CC(=O)N1CCC(C(=O)NC(C)c2cccc(OC(F)F)c2)CC1 (centres undefined)	1.57
COCC(O)CN1CCC(=O)N(Cc2ccccc2)Cc2ccccc21 (centres undefined)	-5.42
C[S+]([O-])c1nncn1CC(=O)c1ccc(Br)cc1 (centres undefined)	-5.18
CCc1ccc(S(=O)(=O)Nc2ccn(CC(=O)OC)n2)cc1	-4.63
Cc1cc(-c2cnc(N3CCCC(C)C3)nc2C(C)C)on1 (centres undefined)	18.8
Cc1oc(-c2nc(C#N)c(N(C)C)o2)cc1S(=O)(=O)N1CCCCCC1	12.8
Cc1nc(C)c(C(=O)Nc2cccc(CN3CCC(CO)CC3)c2)o1	0.852
Cc1ccc(CNC2(Cc3cc(-c4ccc(F)cc4)on3)COC2)o1	-2.05
Cc1ccc(CNC(=O)C2c3c(ncn3C(C)C)CCN2S(C)(=O)=O)o1 (centres undefined)	-0.242

SMILES	cytotoxicity at 70.5 h [%]
c1cnn(C2CN(c3ncnc4[nH]ccc34)C2)c1	-0.76
Cc1nc(C)n(CC2CN(Cc3nc4ccccc4n3C)CCO2)n1 (centres undefined)	-13.3
CN1CCN(C(=O)c2cnsn2)c2cc(F)ccc21	1.4
CN1Cc2ccccc2CC2(CCN(C(=O)N3CCOCC3)CC2)C1=O	24.7
O=C(c1cccnc1-n1cccn1)N1CCN(CC2CC2)CC1	-11
CS(=O)(=O)N1CCC2(CCCN(Cc3ccccn3)C2)C1 (centres undefined)	9.19
COc1cc(C(C)=O)ccc1SCC(=O)Nc1cc(C)n[nH]1	-11.8
COc1ccccc1[C@@H]1CN(C(=O)Cc2csc(C)n2)C[C@H]1C(=O)O	12.8
c1cnc(NCc2noc3c2CN(c2cnccn2)CC3)nc1	-3.45
CCn1c(NCc2ccc(OC)cc2)nc2c(C)nn(C)c2c1=O	-6.73
CC(C)n1cnc(-c2nc(C(=O)N3CCN(C)CC3)c3ccccn23)c1	-2.41
Cc1nc(CN2CCCN(C(=O)c3c(C)noc3C)CC2)cs1	-5.02
CC(=O)Nc1ccc(-c2ccccc2CCN)cc1	-4.46
CC(C)(C)c1noc(CCC(=O)N2CCN(Cc3ccc(Cl)s3)CC2)n1	25.8
O=C1OCCN1CCS(=O)(=O)c1cccc(Br)c1	-2.02
CCc1nccn1CCC(=O)N1CC[C@H](CO)[C@H](O)C1	-10.2
CN(Cc1ccc2c(c1)OCCO2)Cc1nnnn1-c1ccccc1	-17.2
O=c1c2ccccc2nc2n1C(CSc1ccc(Cl)cc1Cl)CN2 (centres undefined)	29.6
Cc1ncsc1C(=O)N1CCC(c2ccc3c(NC(C)C)n[nH]c3n2)C1 (centres undefined)	-15.9
Cc1c(Cl)cccc1NC(=O)Cn1cc(C(=O)O)ccc1=O	-10.5
CNS(=O)(=O)c1csc(C(=O)NCc2sccc2C)c1	-4.77
Cc1nc2cc(O)nn2c(C)c1CCC(=O)NCCCC(C)C	-3.79
CCOC(=O)CSc1nnc([C@@H](N)CC(C)C)o1	-6.75

SMILES	cytotoxicity at 70.5 h [%]
CCN1CC[C@@]2(C(=O)N3CCOCC3)CCN(C(=O)NC)CC[C@@H]12	-10.8
CN(C)c1cccc(C(=O)Nc2cn(C)c(=O)n(C)c2=O)c1	-3.1
Cn1ccnc1-c1ccc(NCC2COCCO2)nn1 (centres undefined)	-5.53
c1cc(C2CN(C3CCCCC3)C2)n[nH]1	17.8
CCOC(=O)C1(Cc2ccccc2-c2ccccc2OC)CCNCC1	11
O=C(CCN1CCOCC1)NC(Cc1ccsc1)c1nccs1 (centres undefined)	-4.65
O=C(c1cocn1)N1C[C@H]2CCC[C@@]2(COc2ccccn2)C1	8.39
CC(=O)N1CC2(CCN(Cc3ccc(Cl)cc3)CC2)Cc2ccccc21	9.92
Cc1nn(C)c(C)c1C1COCCN1C(=O)c1ccccc1 (centres undefined)	22.5
Cn1cnnc1CCNC(=O)c1ccccc1OC1CCC1	7.31
Cc1cnn(C2CCCN(C(=O)C3=NN(C)C(=O)CC3)C2)c1 (centres undefined)	22.6
O=C(c1cnccn1)N1CCC2(CCCN(Cc3ccoc3)C2)C1 (centres undefined)	11.3
CCn1cc(NC(=O)NCC(C)(C)N2CCc3ccccc3C2)cn1	13.8
CC(=O)N1CCCC(C(=O)NCc2noc(Cc3ccccc3)n2)C1 (centres undefined)	-11.1
CCc1ccc2nc(C)cc(C(=O)NC3CCNC3=O)c2c1 (centres undefined)	0.829
Cc1cc(C)n(CC2CN(CCc3ccncc3)CCO2)n1 (centres undefined)	-2.71
Cc1noc(C)c1CN1CCC2(CC1)C(c1ccccc1)CC(=O)N2C (centres undefined)	-1.86
COc1ccc(-c2nnsc2C(=O)N2CCSCC2)cc1	-8.21
COc1cccc2c1N(C(=O)c1ccc(C)nc1)CCC2	4.1
CCCN1CCN(C(=O)c2cccnc2-n2cncn2)CC1	-2.43
Cc1n[nH]cc1CNC1CCN(c2ccc(F)cc2)CC1	-8.94
COc1ccc(F)cc1S(=O)(=O)NCCn1cnc(C)cc1=O	-12.5
